In PubChem BioAssay (NCI):
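Compound exposure: 48 hours, 5 concentrations, 96-well plates. GI50 = concentration required for 50% inhibition of growth. TGI denotes the concentration required for complete inhibition of growth.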

Columns and labels:
Assay in all cases: DTP human tumour cell line panel, 48 h
HOP-92 NSCLC = system: HOP-92 NSCLC
HS 578T breast = system: HS 578T breast
RPMI-8226 leukemia = system: RPMI-8226 leukemia
CAKI-1 renal = system: CAKI-1 renal
SW-620 colon = system: SW-620 colon
UO-31 renal = system: UO-31 renal
HL-60(TB) leukemia = system: HL-60(TB) leukemia
LOX IMVI melanoma = system: LOX IMVI melanoma
OVCAR-4 ovarian = system: OVCAR-4 ovarian
SF-268 CNS = system: SF-268 CNS
HOP-62 NSCLC = system: HOP-62 NSCLC
HT29 colon = system: HT29 colon
KM12 colon = system: KM12 colon
NCI-H522 lung = system: NCI-H522 lung
IGROV1 ovarian = system: IGROV1 ovarian
CCRF-CEM leukemia = system: CCRF-CEM leukemia
OVCAR-3 ovarian = system: OVCAR-3 ovarian
NCI-H460 lung = system: NCI-H460 lung
UACC-62 melanoma = system: UACC-62 melanoma
ACHN renal = system: ACHN renal
M14 melanoma = system: M14 melanoma
TK-10 renal = system: TK-10 renal
OVCAR-8 ovarian = system: OVCAR-8 ovarian
HCT-116 colon = system: HCT-116 colon
BT-549 breast = system: BT-549 breast
MCF7 breast = system: MCF7 breast
786-0 renal = system: 786-0 renal
DU-145 prostate = system: DU-145 prostate
T-47D breast = system: T-47D breast
SF-539 CNS = system: SF-539 CNS
SF-295 CNS = system: SF-295 CNS
MALME-3M melanoma = system: MALME-3M melanoma
HCC-2998 colon = system: HCC-2998 colon
SK-MEL-28 melanoma = system: SK-MEL-28 melanoma
UACC-257 melanoma = system: UACC-257 melanoma
SK-MEL-5 melanoma = system: SK-MEL-5 melanoma
OVCAR-5 ovarian = system: OVCAR-5 ovarian
MDA-MB-435 = system: MDA-MB-435
SK-MEL-2 melanoma = system: SK-MEL-2 melanoma
EKVX NSCLC = system: EKVX NSCLC
NCI-H226 lung = system: NCI-H226 lung
NCI-H23 lung = system: NCI-H23 lung
SK-OV-3 ovarian = system: SK-OV-3 ovarian
K-562 leukemia = system: K-562 leukemia
A549 NSCLC = system: A549 NSCLC
MDA-MB-231 breast = system: MDA-MB-231 breast
SN12C renal = system: SN12C renal
HCT-15 colon = system: HCT-15 colon
SNB-75 CNS = system: SNB-75 CNS
U251 CNS = system: U251 CNS
SNB-19 CNS = system: SNB-19 CNS
RXF 393 renal = system: RXF 393 renal
MOLT-4 leukemia = system: MOLT-4 leukemia
COLO 205 colon = system: COLO 205 colon
MDA-MB-468 breast = system: MDA-MB-468 breast
SR leukemia = system: SR leukemia
A498 renal = system: A498 renal
PC-3 prostate = system: PC-3 prostate

O=C(c1ccc(Cl)cc1)C1[C@H](c2ccc(Br)cc2)[C@@H](c2ccccc2)NC12C(=O)Nc1ccccc12 (stereo partly specified)
GI50 (HOP-92 NSCLC): 6.27 µM
TGI (HOP-92 NSCLC): 15.1 µM
GI50 (HS 578T breast): 8.79 µM
TGI (HS 578T breast): 26.3 µM
GI50 (RPMI-8226 leukemia): 6.53 µM
TGI (RPMI-8226 leukemia): 33.9 µM
GI50 (CAKI-1 renal): 2.88 µM
TGI (CAKI-1 renal): 17.4 µM
GI50 (SW-620 colon): 7.4 µM
TGI (SW-620 colon): 18.6 µM
GI50 (UO-31 renal): 3.37 µM
TGI (UO-31 renal): 12 µM
GI50 (HL-60(TB) leukemia): 8.74 µM
TGI (HL-60(TB) leukemia): 40.8 µM
GI50 (LOX IMVI melanoma): 5.04 µM
TGI (LOX IMVI melanoma): 14.3 µM
GI50 (OVCAR-4 ovarian): 8.37 µM
TGI (OVCAR-4 ovarian): 31.3 µM
GI50 (SF-268 CNS): 7.03 µM
TGI (SF-268 CNS): 28.9 µM
GI50 (HOP-62 NSCLC): 8.69 µM
TGI (HOP-62 NSCLC): 18.3 µM
GI50 (HT29 colon): 5.7 µM
TGI (HT29 colon): 15 µM
GI50 (KM12 colon): 6.13 µM
TGI (KM12 colon): 17.9 µM
GI50 (NCI-H522 lung): 5.93 µM
TGI (NCI-H522 lung): 15.5 µM
GI50 (IGROV1 ovarian): 7.01 µM
TGI (IGROV1 ovarian): 16.2 µM
GI50 (CCRF-CEM leukemia): 4.54 µM
TGI (CCRF-CEM leukemia): 26.8 µM
GI50 (OVCAR-3 ovarian): 8.74 µM
TGI (OVCAR-3 ovarian): 27.4 µM
GI50 (NCI-H460 lung): 5.88 µM
TGI (NCI-H460 lung): 16 µM
GI50 (UACC-62 melanoma): 4.16 µM
TGI (UACC-62 melanoma): 12.1 µM
GI50 (ACHN renal): 5.64 µM
TGI (ACHN renal): 15.5 µM
GI50 (M14 melanoma): 6.97 µM
TGI (M14 melanoma): 16.4 µM
GI50 (TK-10 renal): 8.72 µM
TGI (TK-10 renal): 20.1 µM
GI50 (OVCAR-8 ovarian): 8.26 µM
TGI (OVCAR-8 ovarian): 17.3 µM
GI50 (HCT-116 colon): 3.83 µM
TGI (HCT-116 colon): 13.5 µM
GI50 (BT-549 breast): 8.86 µM
TGI (BT-549 breast): 17 µM
GI50 (MCF7 breast): 4.65 µM
TGI (MCF7 breast): 29.3 µM
GI50 (786-0 renal): 8 µM
TGI (786-0 renal): 23.1 µM
GI50 (DU-145 prostate): 9.92 µM
TGI (DU-145 prostate): 28.5 µM
GI50 (T-47D breast): 3.96 µM
TGI (T-47D breast): 16 µM
GI50 (SF-539 CNS): 8.59 µM
TGI (SF-539 CNS): 18 µM
GI50 (SF-295 CNS): 6.33 µM
TGI (SF-295 CNS): 16.9 µM
GI50 (MALME-3M melanoma): 8.65 µM
TGI (MALME-3M melanoma): 16.3 µM
GI50 (HCC-2998 colon): 7.79 µM
TGI (HCC-2998 colon): 16.7 µM
GI50 (SK-MEL-28 melanoma): 7.53 µM
TGI (SK-MEL-28 melanoma): 15.1 µM
GI50 (UACC-257 melanoma): 7.28 µM
TGI (UACC-257 melanoma): 16.3 µM
GI50 (SK-MEL-5 melanoma): 9.7 µM
TGI (SK-MEL-5 melanoma): 17.7 µM
GI50 (OVCAR-5 ovarian): 7.19 µM
TGI (OVCAR-5 ovarian): 15.1 µM
GI50 (MDA-MB-435): 7.84 µM
TGI (MDA-MB-435): 16.9 µM
GI50 (SK-MEL-2 melanoma): 8.59 µM
TGI (SK-MEL-2 melanoma): 16.9 µM
GI50 (EKVX NSCLC): 9.02 µM
TGI (EKVX NSCLC): 29 µM
GI50 (NCI-H226 lung): 7.87 µM
TGI (NCI-H226 lung): 15.9 µM
GI50 (NCI-H23 lung): 8.53 µM
TGI (NCI-H23 lung): 19.6 µM
GI50 (SK-OV-3 ovarian): 14.8 µM
TGI (SK-OV-3 ovarian): 54 µM
GI50 (K-562 leukemia): 2.94 µM
TGI (K-562 leukemia): 56 µM
GI50 (A549 NSCLC): 5.03 µM
TGI (A549 NSCLC): 15.9 µM
GI50 (MDA-MB-231 breast): 6.21 µM
TGI (MDA-MB-231 breast): 13.5 µM
GI50 (SN12C renal): 5.41 µM
TGI (SN12C renal): 12.3 µM
GI50 (HCT-15 colon): 6.91 µM
TGI (HCT-15 colon): 18.7 µM
GI50 (SNB-75 CNS): 5.1 µM
TGI (SNB-75 CNS): 26.1 µM
GI50 (U251 CNS): 7.49 µM
TGI (U251 CNS): 16 µM
GI50 (SNB-19 CNS): 10.7 µM
TGI (SNB-19 CNS): 42.2 µM
GI50 (RXF 393 renal): 6.62 µM
TGI (RXF 393 renal): 14 µM
GI50 (MOLT-4 leukemia): 2.69 µM
TGI (MOLT-4 leukemia): 48.7 µM
GI50 (COLO 205 colon): 9.95 µM
TGI (COLO 205 colon): 19.6 µM
GI50 (MDA-MB-468 breast): 8.43 µM
TGI (MDA-MB-468 breast): 19.5 µM
GI50 (SR leukemia): 4.32 µM
TGI (SR leukemia): 42.2 µM
GI50 (A498 renal): 10.7 µM
TGI (A498 renal): 22.2 µM
GI50 (PC-3 prostate): 2.86 µM
TGI (PC-3 prostate): 17.7 µM
